ChEMBL document CHEMBL5120904, “Zelkovamycins F and G, Cyclopeptides with Cα-Methyl-threonine Residues, from an Endophytic Kitasatospora sp” (J Nat Prod, 2022)
Converted amounts (≈) assume the structure as drawn. *1 amine or outer side, *2 acyl side, *3 side chain or, on linkers, in order; H or OH if unused. Where a SMILES comes first, the peptide text is derived from it. [ ]: non-standard residue; d: D form. dAla(ψthiazole) = C[C@@H](N[*:1])c1nc(C(=O)[*:2])cs1; Trp(4-OMe) = COc1cccc2[nH]cc(C[C@H](N)C(=O)O)c12; X1 = CC(=O)[C@](C)(N[*:1])C(=O)[*:2]; Dhb = C/C=C(\N)C(=O)O; Sar = CNCC(=O)O

Assays:
[1] = Cytotoxicity against human Huh7.5 cells; type: toxicity, cell-based, Huh-7.5
Hepatitis C virus = test: Antiviral activity against HCV infected in human Huh7.5 cells assessed as reduction in viral RNA level measured after 72 hrs by RT-PCR analysis; type: functional, organism-based, Hepacivirus hominis; conditions: Huh7.5, 72 h
[2] = Selectivity index, ratio of CC50 for human Huh7.5 cells to EC50 for antiviral activity against HCV infected in human Huh7.5 cells; type: toxicity, cell-based; conditions: read-out: Ratio CC50/EC50
Staphylococcus aureus [3] = test: Antibacterial activity against methicillin-resistant Staphylococcus aureus R6101 measured after 24 hrs by broth microdilution method; type: functional
Pseudomonas aeruginosa = test: Antibacterial activity against Pseudomonas aeruginosa ATCC27853 measured after 24 hrs by broth microdilution method; type: functional
Influenza A virus = test: Antiviral activity against Influenza A virus A/WSN/33(H1N1) infected in HEK293T cells pretreated for 2 hrs followed by viral infection and measured after 24 hrs by Gaussia luciferase assay; type: functional, organism-based; conditions: HEK-293T
Escherichia coli = test: Antibacterial activity against Escherichia coli measured after 24 hrs by broth microdilution method; type: functional
Staphylococcus aureus [4] = test: Antibacterial activity against methicillin-resistant Staphylococcus aureus ATCC33591 measured after 24 hrs by broth microdilution method; type: functional
[5] = tested on: Staphylococcus epidermidis; test: Antibacterial activity against Staphylococcus epidermidis ATCC12228 measured after 24 hrs by broth microdilution method; type: functional
Morganella morganii [6] = test: Antibacterial activity against beta-lactamase-producing Morganella morganii ATCC25830 measured after 24 hrs by broth microdilution method; type: functional
Bacillus subtilis = test: Antibacterial activity against Bacillus subtilis ATCC6633 measured after 24 hrs by broth microdilution method; type: functional
Staphylococcus aureus [7] = test: Antibacterial activity against methicillin-sensitive Staphylococcus aureus ATCC29213 measured after 24 hrs by broth microdilution method; type: functional
Morganella morganii [8] = test: Antibacterial activity against multidrug-resistant Morganella morganii KL-225 measured after 24 hrs by broth microdilution method; type: functional
Klebsiella pneumoniae = test: Antibacterial activity against Klebsiella pneumoniae ATCC700603 measured after 24 hrs by broth microdilution method; type: functional

SMILES: C/C=C1\NC(=O)[C@@H](C)NC(=O)CNC(=O)[C@](C)(C(C)=O)NC(=O)[C@H](Cc2c[nH]c3cccc(OC)c23)NC(=O)c2csc(n2)[C@@H](C)NC(=O)CN(C)C1=O (cyclo([Dhb][Sar][dAla(ψthiazole)][Trp(4-OMe)][X1]G[dA]))
- CC50 [1]: > 36.5 µM
- EC50 (Hepatitis C virus): 2.2 µM
- selectivity ratio [2]: > 16.6

SMILES: C/C=C1\NC(=O)[C@@H](CC)NC(=O)CNC(=O)[C@](C)(C(C)=O)NC(=O)[C@H](Cc2c[nH]c3cccc(OC)c23)NC(=O)c2csc(n2)[C@@H](C)NC(=O)CNC1=O
- MIC (Staphylococcus aureus [3]): > 160 µg/mL
- MIC (Pseudomonas aeruginosa): > 160 µg/mL
- EC50 (Influenza A virus): > 50 µM
- MIC (Escherichia coli): > 160 µg/mL
- MIC (Staphylococcus aureus [4]): 160 µg/mL (≈ 209 µM)
- MIC [5]: 160 µg/mL (≈ 209 µM)
- MIC (Morganella morganii [6]): > 160 µg/mL
- CC50 [1]: > 106 µM
- EC50 (Hepatitis C virus): 98.5 µM
- MIC (Bacillus subtilis): > 160 µg/mL
- selectivity ratio [2]: > 1.1
- MIC (Staphylococcus aureus [7]): > 160 µg/mL
- MIC (Morganella morganii [8]): > 160 µg/mL
- MIC (Klebsiella pneumoniae): > 160 µg/mL

SMILES: C/C=C1\NC(=O)[C@@H](C)NC(=O)CNC(=O)[C@](C)(C(C)=O)NC(=O)[C@H](Cc2c[nH]c3cccc(OC)c23)NC(=O)c2csc(n2)[C@@H](C)NC(=O)CNC1=O
- MIC (Staphylococcus aureus [3]): > 160 µg/mL
- MIC (Pseudomonas aeruginosa): > 160 µg/mL
- EC50 (Influenza A virus): > 50 µM
- MIC (Escherichia coli): > 160 µg/mL
- MIC (Staphylococcus aureus [4]): > 160 µg/mL
- MIC [5]: > 160 µg/mL
- MIC (Morganella morganii [6]): > 160 µg/mL
- CC50 [1]: > 200 µM
- EC50 (Hepatitis C virus): 46.9 µM
- MIC (Bacillus subtilis): > 160 µg/mL
- selectivity ratio [2]: > 4.3
- MIC (Staphylococcus aureus [7]): > 160 µg/mL
- MIC (Morganella morganii [8]): > 160 µg/mL
- MIC (Klebsiella pneumoniae): > 160 µg/mL

SMILES: C=C1NC(=O)[C@@H](CC)NC(=O)CNC(=O)[C@](C)(C(C)=O)NC(=O)[C@H](Cc2c[nH]c3cccc(OC)c23)NC(=O)c2csc(n2)[C@@H](C)NC(=O)CN(C)C1=O
- MIC (Staphylococcus aureus [3]): 40 µg/mL (≈ 52.2 µM)
- MIC (Pseudomonas aeruginosa): > 160 µg/mL
- EC50 (Influenza A virus): > 50 µM
- MIC (Escherichia coli): > 160 µg/mL
- MIC (Staphylococcus aureus [4]): 1.25 µg/mL (≈ 1.63 µM)
- MIC [5]: 5 µg/mL (≈ 6.53 µM)
- MIC (Morganella morganii [6]): 40 µg/mL (≈ 52.2 µM)
- MIC (Bacillus subtilis): > 160 µg/mL
- MIC (Staphylococcus aureus [7]): 10 µg/mL (≈ 13.1 µM)
- MIC (Morganella morganii [8]): 40 µg/mL (≈ 52.2 µM)
- MIC (Klebsiella pneumoniae): > 160 µg/mL

SMILES: C/C=C1\NC(=O)[C@@H](CC)NC(=O)CNC(=O)[C@](C)(C(C)=O)NC(=O)[C@H](Cc2c[nH]c3cccc(OC)c23)NC(=O)c2csc(n2)[C@@H](C)NC(=O)CN(C)C1=O
- MIC (Staphylococcus aureus [3]): 10 µg/mL (≈ 12.8 µM)
- MIC (Pseudomonas aeruginosa): > 160 µg/mL
- MIC (Escherichia coli): > 160 µg/mL
- MIC (Staphylococcus aureus [4]): 0.31 µg/mL (≈ 0.397 µM)
- MIC [5]: 2.5 µg/mL (≈ 3.21 µM)
- MIC (Morganella morganii [6]): 20 µg/mL (≈ 25.6 µM)
- CC50 [1]: > 111 µM
- EC50 (Hepatitis C virus): 6.3 µM
- MIC (Bacillus subtilis): > 160 µg/mL
- selectivity ratio [2]: > 17.7
- MIC (Staphylococcus aureus [7]): 2.5 µg/mL (≈ 3.21 µM)
- MIC (Morganella morganii [8]): 20 µg/mL (≈ 25.6 µM)
- MIC (Klebsiella pneumoniae): > 160 µg/mL

SMILES: Cc1onc(-c2ccccc2)c1C(=O)N[C@@H]1C(=O)N2[C@@H]1SC(C)(C)[C@@H]2C(=O)O [OXACILLIN]
- MIC (Staphylococcus aureus [3]): > 160 µg/mL
- MIC (Staphylococcus aureus [4]): 80 µg/mL (≈ 199 µM)
- MIC [5]: 0.16 µg/mL (≈ 0.399 µM)
- MIC (Morganella morganii [6]): 40 µg/mL (≈ 99.6 µM)
- MIC (Bacillus subtilis): < 0.078 µg/mL
- MIC (Staphylococcus aureus [7]): 0.078 µg/mL (≈ 0.194 µM)
- MIC (Morganella morganii [8]): > 160 µg/mL

SMILES: CN[C@H](CC(C)C)C(=O)N[C@H]1C(=O)N[C@@H](CC(N)=O)C(=O)N[C@H]2C(=O)N[C@H]3C(=O)N[C@H](C(=O)N[C@H](C(=O)O)c4cc(O)cc(O)c4-c4cc3ccc4O)[C@H](O)c3ccc(c(Cl)c3)Oc3cc2cc(c3O[C@@H]2O[C@H](CO)[C@@H](O)[C@H](O)[C@H]2O[C@H]2C[C@](C)(N)[C@H](O)[C@H](C)O2)Oc2ccc(cc2Cl)[C@H]1O [VANCOMYCIN]
- MIC (Staphylococcus aureus [3]): > 160 µg/mL
- MIC (Staphylococcus aureus [4]): 0.62 µg/mL (≈ 0.428 µM)
- MIC [5]: 1.25 µg/mL (≈ 0.863 µM)
- MIC (Morganella morganii [6]): > 160 µg/mL
- MIC (Bacillus subtilis): < 0.078 µg/mL
- MIC (Staphylococcus aureus [7]): 1.25 µg/mL (≈ 0.863 µM)
- MIC (Morganella morganii [8]): > 160 µg/mL

SMILES: CC(C)OC(=O)[C@H](C)N[P@@](=O)(OC[C@H]1O[C@@H](n2ccc(=O)[nH]c2=O)[C@](C)(F)[C@@H]1O)Oc1ccccc1
- CC50 [1]: > 200 µM
- EC50 (Hepatitis C virus): 0.06 µM
- selectivity ratio [2]: > 3330

SMILES: C/C=C1\NC(=O)[C@@H](C)NC(=O)CNC(=O)[C@@H](CC)NC(=O)[C@H](Cc2c[nH]c3cccc(OC)c23)NC(=O)c2csc(n2)[C@@H](C)NC(=O)CN(C)C1=O
- MIC (Staphylococcus aureus [3]): > 160 µg/mL
- MIC (Pseudomonas aeruginosa): > 160 µg/mL
- EC50 (Influenza A virus): > 50 µM
- MIC (Escherichia coli): > 160 µg/mL
- MIC (Staphylococcus aureus [4]): > 160 µg/mL
- MIC [5]: > 160 µg/mL
- MIC (Morganella morganii [6]): > 160 µg/mL
- MIC (Bacillus subtilis): > 160 µg/mL
- MIC (Staphylococcus aureus [7]): > 160 µg/mL
- MIC (Morganella morganii [8]): > 160 µg/mL
- MIC (Klebsiella pneumoniae): > 160 µg/mL

SMILES: CO[C@H]1/C=C/O[C@@]2(C)Oc3c(C)c(O)c4c(O)c(c(/C=N/N5CCN(C)CC5)c(O)c4c3C2=O)NC(=O)/C(C)=C\C=C\[C@H](C)[C@H](O)[C@@H](C)[C@@H](O)[C@@H](C)[C@H](OC(C)=O)[C@@H]1C [RIFAMPIN]
- MIC (Staphylococcus aureus [3]): 10 µg/mL (≈ 12.2 µM)
- MIC (Staphylococcus aureus [4]): < 0.078 µg/mL
- MIC [5]: < 0.078 µg/mL
- MIC (Morganella morganii [6]): 10 µg/mL (≈ 12.2 µM)
- MIC (Bacillus subtilis): < 0.078 µg/mL
- MIC (Staphylococcus aureus [7]): < 0.078 µg/mL
- MIC (Morganella morganii [8]): 10 µg/mL (≈ 12.2 µM)

SMILES: C[C@H]1COc2c(N3CCN(C)CC3)c(F)cc3c(=O)c(C(=O)O)cn1c23.C[C@H]1COc2c(N3CCN(C)CC3)c(F)cc3c(=O)c(C(=O)O)cn1c23.O [LEVOFLOXACIN]
- MIC (Staphylococcus aureus [3]): 5 µg/mL
- MIC (Staphylococcus aureus [4]): 0.078 µg/mL
- MIC [5]: 0.16 µg/mL
- MIC (Morganella morganii [6]): < 0.078 µg/mL
- MIC (Bacillus subtilis): < 0.078 µg/mL
- MIC (Staphylococcus aureus [7]): 0.078 µg/mL
- MIC (Morganella morganii [8]): 5 µg/mL

SMILES: C/C=C1\NC(=O)[C@@H](CC)NC(=O)CNC(=O)[C@](C)([C@H](C)O)NC(=O)[C@H](Cc2c[nH]c3cccc(OC)c23)NC(=O)c2csc(n2)[C@@H](C)NC(=O)CN(C)C1=O
- MIC (Staphylococcus aureus [3]): 40 µg/mL (≈ 51.2 µM)
- MIC (Pseudomonas aeruginosa): > 160 µg/mL
- EC50 (Influenza A virus): > 50 µM
- MIC (Escherichia coli): > 160 µg/mL
- MIC (Staphylococcus aureus [4]): 2.5 µg/mL (≈ 3.2 µM)
- MIC [5]: 1.25 µg/mL (≈ 1.6 µM)
- MIC (Morganella morganii [6]): 80 µg/mL (≈ 102 µM)
- CC50 [1]: > 200 µM
- EC50 (Hepatitis C virus): 98.6 µM
- MIC (Bacillus subtilis): > 160 µg/mL
- selectivity ratio [2]: > 2
- MIC (Staphylococcus aureus [7]): 20 µg/mL (≈ 25.6 µM)
- MIC (Morganella morganii [8]): 160 µg/mL (≈ 205 µM)
- MIC (Klebsiella pneumoniae): > 160 µg/mL

SMILES: C/C=C1\NC(=O)[C@@H](CC)NC(=O)CNC(=O)[C@](C)([C@@H](C)O)NC(=O)[C@H](Cc2c[nH]c3cccc(OC)c23)NC(=O)c2csc(n2)[C@@H](C)NC(=O)CN(C)C1=O
- MIC (Staphylococcus aureus [3]): 40 µg/mL (≈ 51.2 µM)
- MIC (Pseudomonas aeruginosa): > 160 µg/mL
- EC50 (Influenza A virus): > 50 µM
- MIC (Escherichia coli): > 160 µg/mL
- MIC (Staphylococcus aureus [4]): 1.25 µg/mL (≈ 1.6 µM)
- MIC [5]: 0.62 µg/mL (≈ 0.793 µM)
- MIC (Morganella morganii [6]): 160 µg/mL (≈ 205 µM)
- MIC (Bacillus subtilis): > 160 µg/mL
- MIC (Staphylococcus aureus [7]): 10 µg/mL (≈ 12.8 µM)
- MIC (Morganella morganii [8]): > 160 µg/mL
- MIC (Klebsiella pneumoniae): > 160 µg/mL
